Data reported in PubChem BioAssay (NCI).
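Assay format: 96-well plates, 48-hour exposure. At the GI50, growth is halved. The concentration for full growth arrest is given as TGI.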

How the values were obtained:
Assay in all cases: NCI tumour cell line growth inhibition, 48 h
NCI-H460 lung = test system: NCI-H460 lung
HOP-92 NSCLC = test system: HOP-92 NSCLC
U251 CNS = test system: U251 CNS
COLO 205 colon = test system: COLO 205 colon
SF-539 CNS = test system: SF-539 CNS
SNB-19 CNS = test system: SNB-19 CNS
MDA-MB-435 = test system: MDA-MB-435
SK-MEL-5 melanoma = test system: SK-MEL-5 melanoma
KM12 colon = test system: KM12 colon
ACHN renal = test system: ACHN renal
RPMI-8226 leukemia = test system: RPMI-8226 leukemia
HCC-2998 colon = test system: HCC-2998 colon
SF-268 CNS = test system: SF-268 CNS
HOP-62 NSCLC = test system: HOP-62 NSCLC
M14 melanoma = test system: M14 melanoma
MALME-3M melanoma = test system: MALME-3M melanoma
NCI-H522 lung = test system: NCI-H522 lung
HT29 colon = test system: HT29 colon
HCT-116 colon = test system: HCT-116 colon
SN12C renal = test system: SN12C renal
CAKI-1 renal = test system: CAKI-1 renal
SR leukemia = test system: SR leukemia
OVCAR-8 ovarian = test system: OVCAR-8 ovarian
IGROV1 ovarian = test system: IGROV1 ovarian
NCI-H226 lung = test system: NCI-H226 lung
RXF 393 renal = test system: RXF 393 renal
MOLT-4 leukemia = test system: MOLT-4 leukemia
HCT-15 colon = test system: HCT-15 colon
EKVX NSCLC = test system: EKVX NSCLC
UACC-257 melanoma = test system: UACC-257 melanoma
UACC-62 melanoma = test system: UACC-62 melanoma
HL-60(TB) leukemia = test system: HL-60(TB) leukemia
TK-10 renal = test system: TK-10 renal
OVCAR-4 ovarian = test system: OVCAR-4 ovarian
CCRF-CEM leukemia = test system: CCRF-CEM leukemia
HS 578T breast = test system: HS 578T breast
PC-3 prostate = test system: PC-3 prostate
T-47D breast = test system: T-47D breast
SNB-75 CNS = test system: SNB-75 CNS
NCI/ADR-RES ovarian = test system: NCI/ADR-RES ovarian
SF-295 CNS = test system: SF-295 CNS
BT-549 breast = test system: BT-549 breast
786-0 renal = test system: 786-0 renal
SK-OV-3 ovarian = test system: SK-OV-3 ovarian
OVCAR-5 ovarian = test system: OVCAR-5 ovarian
LOX IMVI melanoma = test system: LOX IMVI melanoma
MDA-MB-231 breast = test system: MDA-MB-231 breast
UO-31 renal = test system: UO-31 renal
SW-620 colon = test system: SW-620 colon
SK-MEL-28 melanoma = test system: SK-MEL-28 melanoma
MCF7 breast = test system: MCF7 breast
A498 renal = test system: A498 renal
K-562 leukemia = test system: K-562 leukemia
OVCAR-3 ovarian = test system: OVCAR-3 ovarian
SK-MEL-2 melanoma = test system: SK-MEL-2 melanoma
NCI-H23 lung = test system: NCI-H23 lung
DU-145 prostate = test system: DU-145 prostate
A549 NSCLC = test system: A549 NSCLC

Cc1ccc2sc3c(c2c1)OC(N)=C(C#N)C3c1cccc(F)c1 (stereo unspecified)
GI50 (NCI-H460 lung): 52.1 nM
TGI (NCI-H460 lung): 1370 nM
GI50 (HOP-92 NSCLC): 4320 nM
TGI (HOP-92 NSCLC): 20500 nM
GI50 (U251 CNS): 151 nM
TGI (U251 CNS): 1950 nM
GI50 (COLO 205 colon): 276 nM
TGI (COLO 205 colon): 779 nM
GI50 (SF-539 CNS): 155 nM
TGI (SF-539 CNS): 547 nM
GI50 (SNB-19 CNS): 339 nM
TGI (SNB-19 CNS): 13000 nM
GI50 (MDA-MB-435): 24.1 nM
TGI (MDA-MB-435): 62 nM
GI50 (SK-MEL-5 melanoma): 391 nM
TGI (SK-MEL-5 melanoma): 2350 nM
GI50 (KM12 colon): 309 nM
TGI (KM12 colon): 16900 nM
GI50 (ACHN renal): 450 nM
TGI (ACHN renal): 10700 nM
GI50 (RPMI-8226 leukemia): 324 nM
TGI (RPMI-8226 leukemia): 9770 nM
GI50 (HCC-2998 colon): 264 nM
TGI (HCC-2998 colon): 1410 nM
GI50 (SF-268 CNS): 822 nM
TGI (SF-268 CNS): 24600 nM
GI50 (HOP-62 NSCLC): 265 nM
TGI (HOP-62 NSCLC): 3970 nM
GI50 (M14 melanoma): 137 nM
TGI (M14 melanoma): 1900 nM
GI50 (MALME-3M melanoma): 99.2 nM
TGI (MALME-3M melanoma): 11200 nM
GI50 (NCI-H522 lung): 22.8 nM
TGI (NCI-H522 lung): 94.6 nM
GI50 (HT29 colon): 250 nM
TGI (HT29 colon): 878 nM
GI50 (HCT-116 colon): 102 nM
TGI (HCT-116 colon): 1950 nM
GI50 (SN12C renal): 411 nM
TGI (SN12C renal): 6170 nM
GI50 (CAKI-1 renal): 183 nM
TGI (CAKI-1 renal): 11500 nM
GI50 (SR leukemia): 90 nM
TGI (SR leukemia): 30800 nM
GI50 (OVCAR-8 ovarian): 257 nM
TGI (OVCAR-8 ovarian): 1250 nM
GI50 (IGROV1 ovarian): 318 nM
TGI (IGROV1 ovarian): 12700 nM
GI50 (NCI-H226 lung): 282 nM
TGI (NCI-H226 lung): 2810 nM
GI50 (RXF 393 renal): 36.5 nM
TGI (RXF 393 renal): 189 nM
GI50 (MOLT-4 leukemia): 414 nM
TGI (MOLT-4 leukemia): 33600 nM
GI50 (HCT-15 colon): 75.5 nM
TGI (HCT-15 colon): 6400 nM
GI50 (EKVX NSCLC): 573 nM
TGI (EKVX NSCLC): 18900 nM
GI50 (UACC-257 melanoma): 162 nM
TGI (UACC-257 melanoma): 23300 nM
GI50 (UACC-62 melanoma): 53.5 nM
TGI (UACC-62 melanoma): 12500 nM
GI50 (HL-60(TB) leukemia): 235 nM
TGI (HL-60(TB) leukemia): 671 nM
GI50 (TK-10 renal): 1580 nM
TGI (TK-10 renal): 13500 nM
GI50 (OVCAR-4 ovarian): 1340 nM
TGI (OVCAR-4 ovarian): 7480 nM
GI50 (CCRF-CEM leukemia): 312 nM
TGI (CCRF-CEM leukemia): 24700 nM
GI50 (HS 578T breast): 194 nM
TGI (HS 578T breast): 8970 nM
GI50 (PC-3 prostate): 305 nM
TGI (PC-3 prostate): 14800 nM
GI50 (T-47D breast): 35.1 nM
TGI (T-47D breast): 26900 nM
GI50 (SNB-75 CNS): 158 nM
TGI (SNB-75 CNS): 1360 nM
GI50 (NCI/ADR-RES ovarian): 57.4 nM
TGI (NCI/ADR-RES ovarian): 1760 nM
GI50 (SF-295 CNS): 79.9 nM
TGI (SF-295 CNS): 770 nM
GI50 (BT-549 breast): 137 nM
TGI (BT-549 breast): 1170 nM
GI50 (786-0 renal): 458 nM
TGI (786-0 renal): 6490 nM
GI50 (SK-OV-3 ovarian): 324 nM
TGI (SK-OV-3 ovarian): 10700 nM
GI50 (OVCAR-5 ovarian): 370 nM
TGI (OVCAR-5 ovarian): 7580 nM
GI50 (LOX IMVI melanoma): 160 nM
TGI (LOX IMVI melanoma): 2450 nM
GI50 (MDA-MB-231 breast): 457 nM
TGI (MDA-MB-231 breast): 3170 nM
GI50 (UO-31 renal): 375 nM
TGI (UO-31 renal): 11100 nM
GI50 (SW-620 colon): 111 nM
TGI (SW-620 colon): 13400 nM
GI50 (SK-MEL-28 melanoma): 825 nM
TGI (SK-MEL-28 melanoma): 20100 nM
GI50 (MCF7 breast): 30 nM
TGI (MCF7 breast): 11700 nM
GI50 (A498 renal): 3350 nM
TGI (A498 renal): 17200 nM
GI50 (K-562 leukemia): 42.6 nM
TGI (K-562 leukemia): > 40800 nM
GI50 (OVCAR-3 ovarian): 134 nM
TGI (OVCAR-3 ovarian): 4100 nM
GI50 (SK-MEL-2 melanoma): 308 nM
TGI (SK-MEL-2 melanoma): 18700 nM
GI50 (NCI-H23 lung): 205 nM
TGI (NCI-H23 lung): 2560 nM
GI50 (DU-145 prostate): 541 nM
TGI (DU-145 prostate): > 33200 nM
GI50 (A549 NSCLC): 217 nM
TGI (A549 NSCLC): 11600 nM
